We go through one molecule from patent publication US20230321117A1, “USE OF […] TREATING AN EPILEPSY DISORDER” (MARINUS PHARMACEUTICALS, INC., priority 2020, published 2023).

What all share (type): in vivo, human
In data set [1] the test system is major motor seizures in patients with CDKL5 deficiency disorder (CDD). The experiment in a line: Percent change in major motor seizure frequency vs plasma ganaxolone level, phase 3 CDD trial. To be noted: back-transformation of log values; CDD participants. The text has this: (§1) Global, randomized, double-blind, placebo-controlled phase 3 clinical trial to assess the safety and efficacy of adjunctive ganaxolone for the treatment of seizures associated with CDD. Patients aged 2 to 21 years with a pathogenic or likely pathogenic mutation of the CDKL5 gene, neurodevelopmental impairment, and seizures refractory to treatment with at least 2 prior antiseizure medications who experienced at least 16 seizures per 28 days during the 2 months prior to screening were eligible to enroll. Study consisted of a 6-week baseline followed by a 17-week double-blind phase (ganaxolone or placebo, 1:1). The dose of ganaxolone 50 mg/mL suspension was titrated over 4 weeks to 63 mg/kg/day (21 mg/kg TID), not to exceed 1800 mg/d (600 mg TID), or to the maximum tolerated dose. Blood draws for PK analysis were scheduled to occur at visit 3 (week 5), visit 4 (week 9), and visit 5 (week 17).
Mean ganaxolone concentration was calculated for each subject using available results from up to three laboratory determinations during the double-blind phase. Linear regression was conducted using arithmetic- and natural logarithm-transformed percent reduction in major motor seizures (loge [percent reduction+100]) as dependent variable and natural logarithm-transformed mean ganaxolone concentration as the single explanatory variable. […]

The test system of data set [2] is seizure occurrence in presurgical epilepsy participants. The experiment in a line: Double-blind placebo-controlled study during AED discontinuation with inpatient continuous EEG monitoring. The conditions noted are these: 500 mg TID or 625 mg TID, up to 8 days; log-rank p=0.08. On the procedure: A double-blind, placebo-controlled study that enrolled 52 participants 18-65 years of age undergoing AED discontinuation during inpatient continuous EEG monitoring as part of an evaluation for surgical treatment of epilepsy was performed. Participants were randomized and administered: (i) ganaxolone 500 mg TID, (ii) 625 mg TID, or (iii) matching placebo and treated for up to 8 days. The primary endpoint was difference in the duration of treatment before meeting withdrawal criteria based on seizure occurrence.

For data set [3], the system named is partial-onset (focal) seizures. The experiment in a line: Phase 2 study in adults with uncontrolled partial-onset (focal) seizures. The method, then:
A Phase 2 study was conducted. It enrolled 147 participants 18-69 years of age with a diagnosis of epilepsy with uncontrolled partial-onset (focal) seizures with or without secondary generalization despite being treated with up to 3 AEDs. Participants were randomized to adjunctive placebo (N=49) or GNX liquid suspension (N=98) titrated to a target dose of at 500 mg TID (1500 mg/day) in addition to their baseline AEDs, after which they entered an eight-week prospective baseline period followed by a 10-week double-blind phase. The primary endpoint was the reduction in weekly frequency of focal motor, focal impaired awareness and focal to bilateral tonic-clonic seizures from baseline to the double-blind phase. The prespecified primary analysis was the reduction in mean weekly seizure frequency, with log-transformed rates analyzed using analysis of covariance (ANCOVA). The protocol defined the population for analysis (“Primary Population”) as participants with 10 or fewer seizures/week during the baseline period.

Data set [4] can be described thus: Plasma ganaxolone concentration in phase 3 CDD trial (PK/PD analysis).
Description: as §1
Mean ganaxolone concentration was calculated for each subject using available results from up to three laboratory determinations during the double-blind phase. Linear regression was conducted using arithmetic- and natural logarithm-transformed percent reduction in major motor seizures (loge [percent reduction+100]) as dependent variable and natural logarithm-transformed mean ganaxolone concentration as the single explanatory variable. Regression diagnostics included examination of residual and normal probability plots and determination of outliers and influential values. Cases with standardized residuals >2 or <−2 were excluded from the model and the regression was repeated.
The resulting sample was utilized in determination of a Pearson correlation coefficient (using log-transformed values). Additionally, percent seizure reduction was compared in three tertiles representing low (N=13), medium (N=13) and high (N=12) mean per subject ganaxolone concentrations using a Kruskal-Wallis test.

In data set [5] the test system is partial-onset (focal) seizures. The experiment in a line: Phase 3 trial in adults with focal seizures. The method, then:
Based on the results of the phase 2 study, a double-blind, placebo-controlled phase 3 trial in adults with focal seizures was conducted. The study enrolled two cohorts: Cohort 1 was an initial assessment of safety and tolerability of GNX 1200 or 1800 mg/day compared to placebo. Cohort 2, on which the primary efficacy analysis was based, enrolled 359 participants with a diagnosis of epilepsy with uncontrolled partial-onset (focal) seizures with or without secondary generalization who had failed at least two prior AEDs and had been on a stable regimen of one to three AEDs for at least one month. Following an eight-week prospective baseline period during which there were at least three seizures/28 days, participants were randomized to GNX 1800 mg/d (N=179) or placebo (N=180). The primary endpoint was the percent change in 28-day frequency of focal motor, focal impaired awareness and focal to bilateral tonic-clonic seizures from baseline to the double-blind phase. The primary efficacy analysis was a rank ANCOVA based on the modified intent-to-treat (mITT) population, defined as randomized participants who had taken at least one dose of study drug and provided post-baseline seizure data.

As to `CC(=O)[C@H]1CC[C@H]2[C@@H]3CC[C@H]4C[C@](C)(O)CC[C@]4(C)[C@H]3CC[C@]12C` [ganaxolone], in data set [1], the “seizure reduction predicted at plasma concentration of approximately 100 ng/mL” value is listed as “approximately 40%”. Also, the “duration of treatment before meeting withdrawal criteria based on seizure occurrence, relative to placebo” value in data set [2] is “longer duration of treatment prior to study withdrawal”. Also, the “median percent reduction in seizure frequency” value in data set [3] (ITT population, 1500 mg/day TID, p=0.014 vs placebo) was determined as 25.9%. For the same molecule, the “net reduction in weekly seizure frequency compared to placebo” value turned out to be 11.4% in data set [3] (ITT population, p=0.049) and 11.8% in data set [3] (Primary Population (10 or fewer seizures/week at baseline), p=0.042). Moreover, the “Median % reduction GNX” value in data set [3] (Phase 2, 1500 mg/d, TID, N 98) is 25.9%; in data set [5] (Phase 3, 1800 mg/d, BID, N 179), 21.3%. Moreover, the “weekly seizure frequency during the double-blind phase” value in data set [3] (Primary Population, 500 mg TID liquid suspension, adjunctive, baseline 3.13) worked out at 2.70. The “Mean GNX level” value is 172.6 ng/mL in data set [4] (High GNX level tertile (n = 12)), 40.2 ng/mL in data set [4] (Low GNX level tertile (n = 13)) and 72.3 ng/mL in data set [4] (Medium GNX level tertile (n = 13)). Besides, the “percent reduction in seizure frequency from baseline period to double-blind phase” value in data set [5] (mITT, Cohort 2, 1800 mg/d, 28-day frequency, p=0.179 vs placebo) was found to be 21.3%. In addition, the clinical endpoint outcome in data set [5] (oral 1800 mg daily (900 mg twice a day), adults with focal seizures) was “clinical endpoint was not achieved”.
